{"source": "patent US9474780B2", "about": "“GIP and GLP-1 co-agonist compounds” (Eli Lilly and Company, priority 2015, dated 2016)", "key": {"[1]": {"assay": "Dose potency projection: rat ivGTT exposure response Emax model", "format": "in vivo", "details": "single SC dose, ivGTT 16 hours post-dosage", "description": "The intravenous glucose tolerance test (ivGTT) in the rat is used to estimate relative potency of compounds of the present invention in comparison to semaglutide. […] Exposure is measured at the time of the ivGTT, and for exposure response modeling, the insulin AUC in response to the ivGTT is used as the primary endpoint. […] Both data sets are fit simultaneously and E0 and Emax values are constrained to be the same for both compounds. Only ED50 values are fit separately for the compounds."}, "[2]": {"assay": "Rat in vivo insulin secretion following intravenous glucose (IVGTT)", "details": "s.c. 16 hour prior to glucose", "how_it_was_run": "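Male Wistar rats dosed s.c. with vehicle or 0.1–10 nmol/kg 16 h before glucose, then fasted and anesthetized with pentobarbital i.p. (65 mg/kg). Glucose ([…]) given after a time-zero bleed; plasma sampled at 2, 4, 6, 10, 20, 30 min. Glucose measured by analyzer, insulin by MSD immunoassay.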"}, "[3]": {"assay": "Weight loss, body composition and hepatic steatosis in DIO mice", "format": "in vivo, mouse", "details": "for Blood Glucose: Day 15", "how_it_was_run": "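C57/BL6 DIO mice, individually housed at 24 °C, 12 h light/dark, food and water ad libitum; daily body weight and food intake, weight change versus pre-dose value of the same animal. Day 15: tail-vein glucose, then liver triglycerides and plasma cholesterol; ANOVA with Dunnett's test, ED50 for weight loss by non-linear fit.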"}, "[4]": {"assay": "Energy metabolism in DIO mice (indirect calorimetry)", "format": "in vivo, mouse", "details": "SC every three days for 22 days, from week 2, semaglutide 30 nmol/kg", "description": "The effects on energy metabolism in DIO mice for compounds of the present invention are evaluated in 26 week old C57/B16 DIO male mice, weighing 43-50 g. Mice are individually housed in a temperature-controlled (24° C.) facility with a 12 hour light/dark cycle (lights on 22:00), and with free access to food TD95217 (Teklad) and water. After 2 weeks acclimation to the facility, mice are randomized to treatment groups (n=6/group) based on body weight so each group has similar starting mean body weight. Animals are placed in a PhenoMaster/LabMaster calorimeter (TSE Systems, Chesterfield, Mo.) for 3 days of acclimation. Vehicle control (20 mM citrate buffer at pH 7.0, 10 ml/kg), compounds of the present invention, or a long-acting GLP1 analogue, semaglutide, (30 nmol/kg) are subcutaneously administered to ad libitum fed DIO mice 30-90 minutes prior to the onset of the dark cycle every three days for 22 days. Heat and respiratory quotient (RER) are measured by indirect calorimetry as described using an open-circuit calorimetry system. RER is the ratio of the volume of CO2 produced (Vco2) to the volume of O2 consumed (Vo2). Heat is calculated with full body weight considered: VO2=FlowML*(V1+V2)/N2Ref*Animal weight*100) VCO2=FlowML*dCO2/Animal weight*100) Heat=(CVO2*VO2+CVCO2*VCO2)/1000; where CVO2=3.941; CVCO2=1.106"}, "[5]": {"assay": "Gastric emptying in DIO mice", "format": "in vivo, mouse", "details": "30 nmol/kg SC, semi-liquid diet, 2 hours", "description": "The effects on gastric emptying in DIO mice for compounds of the present invention are evaluated in 23 week old diet-induced obese (DIO) male mice (Harlan). The mice are fasted for 16-17 hours. During the start of fasting period the mice are dosed subcutaneously with vehicle control (20 mM citrate buffer at pH 7.0); escalating doses of compounds of the present invention (3, 10, 30 and 100 nmol/kg), or a long-acting GLP1 analogue, semaglutide, (30 nmol/kg). The next day, mice are administered 0.5 ml (0.5 gram) of freshly prepared semi-liquid diet (2 minutes apart) by oral gavage. Water is removed at this time to prevent dilution of administered diet. Two hours after diet administration, mice are euthanized two minutes apart by CO2 gas. The stomach is removed while clamped at both cardiac and pyloric openings, then clamps removed and the full stomach weighed in a weigh boat. The stomach is then incised and contents removed. The stomach is washed and dried and re-weighed to assess food contents in stomach. The % gastric emptying equals 100×(1−(food remaining in stomach/food orally administered))."}, "[6]": {"assay": "Plasma corticosterone in Sprague Dawley rats", "format": "in vivo, rat", "description": "Plasma corticosterone levels are evaluated using Sprague Dawley Rats (Harlan, Indianapolis), weighing approximately 220 g and acclimated for at least 72 hours before handling. The rats are then dosed with vehicle (20 mM citrate buffer, pH 7), semaglutide (10 nmol/kg), or compounds of the present invention at 3, 10 or 30 nmol/kg s.c. with 8 rats per dose group. The rats are decapitated 16 hours later. Blood is collected into EDTA tubes on ice, then centrifuged 5 minutes at 8000 RPM in a Eppendorf 5402 tabletop centrifuge. Plasma is stored at −80° C. until analysis.\nFor corticosterone analysis, corticosterone standards (Sigma, 27840) are prepared by serial dilutions in HPLC-grade methanol, H2O and the addition of 5% charcoal stripped rat serum (Bioreclamation, RATSRM-STRPD-HEV). Rat plasma samples are diluted with PBS, precipitated with cold methanol, incubated for 20 minutes at −20° C., and then centrifuged at 14,000 RPM with an Eppendorf 5417R at 4° C. Supernatants are extracted, evaporated under a stream of N2 gas, and reconstituted in MeOH/H2O (1:1) solution."}}, "note": "Marks after values point to notes of the source that are not given here.", "data": [{"substance": "semaglutide [reference compound]", "values": [{"measurement": "ED50 (Emax model, insulin AUC in ivGTT)", "setting": "[1]", "result": "0.6 ± 0.2", "unit": "nmol/kg"}, {"measurement": "% max increase of insulin AUC", "setting": "[2]", "result": "231 +/− 13%"}, {"measurement": "ED50 for insulin, rat IVGTT", "setting": "[2]", "result": 0.70, "unit": "nmol/kg"}, {"measurement": "% Change from starting body weight", "setting": "[3]; Table 8, 10 nmol/kg", "result": "−12.36 ± 1.00", "unit": "%"}, {"measurement": "% Change from starting fat mass", "setting": "[3]; Table 8, 10 nmol/kg", "result": "−18.21 ± 2.24", "unit": "%"}, {"measurement": "% Change from starting body weight", "setting": "[3]; Table 8, 30 nmol/kg", "result": "−14.20 ± 1.01", "unit": "%"}, {"measurement": "% Change from starting fat mass", "setting": "[3]; Table 8, 30 nmol/kg", "result": "−21.90 ± 2.07", "unit": "%"}, {"measurement": "% Change from starting body weight", "setting": "[3]; Table 8, 100 nmol/kg", "result": "−19.30 ± 1.38", "unit": "%"}, {"measurement": "% Change from starting fat mass", "setting": "[3]; Table 8, 100 nmol/kg", "result": "−33.51 ± 3.30", "unit": "%"}, {"measurement": "% Change from starting body weight", "setting": "[3]; Table 9, 30 nmol/kg", "result": "−17.03 ± 0.98", "unit": "%"}, {"measurement": "% Change from starting fat mass", "setting": "[3]; Table 9, 30 nmol/kg", "result": "−35.94 ± 4.09", "unit": "%"}, {"measurement": "Plasma Cholesterol", "setting": "[3]; Table 11, 10 nmol/kg", "result": "226.8 ± 13.86", "unit": "mg/dL"}, {"measurement": "Plasma Triglycerides", "setting": "[3]; Table 11, 10 nmol/kg", "result": "27.36 ± 3.56", "unit": "mg/dL"}, {"measurement": "Blood Glucose", "setting": "[3]; Table 11, 10 nmol/kg", "result": "147.6 ± 6.13", "unit": "mg/dL"}, {"measurement": "Plasma Cholesterol", "setting": "[3]; Table 11, 30 nmol/kg", "result": "229.8 ± 10.96", "unit": "mg/dL"}, {"measurement": "Plasma Triglycerides", "setting": "[3]; Table 11, 30 nmol/kg", "result": "27.9 ± 6.01", "unit": "mg/dL"}, {"measurement": "Blood Glucose", "setting": "[3]; Table 11, 30 nmol/kg", "result": "146.8 ± 8.43", "unit": "mg/dL"}, {"measurement": "Plasma Cholesterol", "setting": "[3]; Table 11, 100 nmol/kg", "result": "218.4 ± 18.70", "unit": "mg/dL"}, {"measurement": "Plasma Triglycerides", "setting": "[3]; Table 11, 100 nmol/kg", "result": "36.46 ± 5.34", "unit": "mg/dL"}, {"measurement": "Blood Glucose", "setting": "[3]; Table 11, 100 nmol/kg", "result": "134.3 ± 9.22", "unit": "mg/dL"}, {"measurement": "Liver Triglycerides", "setting": "[3]; Table 12, 30 nmol/kg", "result": "67.63 ± 23.40", "unit": "mg/g tissue"}, {"measurement": "Plasma Cholesterol", "setting": "[3]; Table 12, 30 nmol/kg", "result": "161.0 ± 13.92", "unit": "mg/dL"}, {"measurement": "Blood Glucose", "setting": "[3]; Table 12, 30 nmol/kg", "result": "136.3 ± 3.81", "unit": "mg/dL"}, {"measurement": "increase in metabolic rate compared to the control group", "setting": "[4]", "result": "no effect on metabolic rate"}, {"measurement": "Percent Gastric Emptying", "setting": "[5]", "result": "30.56 +/− 7.53** %"}, {"measurement": "Corticosterone, Mean", "setting": "[6]; 10 nmol/kg s.c., 16 hours", "result": 274.57, "unit": "ng/mL"}, {"measurement": "increase in plasma corticosterone levels over control", "setting": "[6]; Example 1 at 3, 10, 30 nmol/kg, semaglutide 10 nmol/kg", "result": "approximately 4 ×"}]}]}
